Data taken from patent US10947596B2, “Compositions and methods for identification, assessment, prevention, and treatment of cancer using NFS1 biomarkers and modulators” (Dana-Farber Cancer Institute, Inc., priority 2014, dated 2021).
“Also recorded” adds a separate entry of the source.

Legend:
[1] = system: ferroptosis; conditions: cited from earlier work
[2] = system: PTGS2; conditions: cited from earlier work
[3] = system: HIF2alpha; experiment: Western blot for HIF2alpha in C2BBE1 cells; assay type: cell-based; conditions: parental C2BBE1 cells, treatment for 24 hours, relative to untreated
[4] = system: aconitase; experiment: Aconitase activity colorimetric assay in MKN74 lysates; assay type: cell-based; conditions: MKN74, constitutive shRNA or cDNA lentivirus, seven days post-infection
Experimental: Aconitase activity was assessed three to eleven days post-infection or dox induction in one million cells using the Aconitase Activity calorimetric Assay Kit (Biovision K716-100). Succinate dehydrogenase activity was assessed using the Succinate Dehydrogenase Activity Colorimetric Assay Kit (Biovision K660-100).
(§1) In order to confirm that such pharmacodynamic markers associated with NFS1 can be used as adjuncts or surrogate markers for directly assessing NFS1 modulation, several experiments were performed. […] The stable lines were replated at 3 days post-dox, cultured for 3 days further, and assessed for NFS1 mRNA knockdown (top right panel) or PTGS2 (Cox2) mRNA levels (bottom right panel) by q-RT-PCR. […]
Similarly, after 7 days of NFS1 knockdown, decreases in aconitase activity and ferritin protein levels, along with upregulation of TFRC protein we observed (FIG. 15). […] These cells were then either lysed in RIPA buffer, quantified, and equally loaded on a SDS-PAGE gel for analysis by Western by staining for TfRC, NFS1, FTL, or GAPDH (loading control); or trypsinized, counted, lysed, and analyzed for aconitase activity. […] These cells were then either lysed in RIPA buffer, quantified, and equally loaded on a SDS-PAGE gel for analysis by Western and staining for NFS1 and GAPDH; or trypsinized, counted, lysed and analyzed for succinate dehydrogenase activity and aconitase activity. […]

[5] = system: ferritin; experiment: Western blot for ferritin (FTH1/FTL) in MKN74; assay type: cell-based; conditions: MKN74, constitutive shRNA or cDNA lentivirus, seven days post-infection
Experimental: Cells were lysed in NP-40 lysis buffer (Boston BioProducts) supplemented with 1× Halt Protease/Phosphatase Inhibitor Cocktail (Pierce Biotechnology, Inc.), 1 mM Dithiothreitol, and 1 mM Phenylmethanesulfonylfluoride. Lysates were cleared by centrifugation and quantified using a BCA Protein Assay Kit (Pierce Biotechnology, Inc.). Lysates were resolved by SDS-PAGE (using Mini-Protean TGX gradient gels, Bio-Rad Laboratories), transferred to nitrocellulose (using the iBlot Gel, Transfer Device and Dry Blotting System, Life Technologies) and blocked in 5% nonfat milk (Blotting-Grade Blocker, Bio-Rad). […] Peroxidase-conjugated secondary antibodies (Donkey anti-rabbit IgG or Donkey anti-mouse IgG, Jackson ImmunoResearch Laboratories, Inc.) were used at 1:5000 in 5% blocking solution, and protein bands were detected using Pico SuperSignal West Pico Chemiluminescent substrate (Thermo Scientific, Pierce Biotechnology, Inc.).
as §1

[6] = system: MKN74 cells; experiment: Clonogenic growth assay in MKN74 cells; assay type: cell-based; conditions: MKN74 stable shRNA lines infected with constitutive cDNA lentivirus (GFP, WT NFS1 or NFS1^C381A), thirteen days post-doxycycline
Experimental: Clonogenic assays were performed for longer-term assessment of proliferative phenotypes. Three days following doxycycline (dox)-induction (of stable, inducible shRNA lines using 0.5 ug/mL dox) or infection (for constitutive shRNA expression), cells were trypsinized, counted (Countess Automated Cell Counter. Life Technologies), and re-plated in duplicate or triplicate in 6-well dishes at 750 to 3000 cells per well, depending on cell line. Clonogenic growth was monitored by RFP (pRSIT12 vector) or GFP (pRSI6 vector) expression at 1 week intervals using a laser scanning cytometer to measure colony area and numbers of colonies per well (IsoCyte, ImageXpress Velos). Two to three weeks after plating cells, cells were stained using crystal violet as an additional visualization of colony formation. […]
Knockdown of NFS1 inhibits clonogenic cell growth. […] Three days post-dox-induction, cells were trypsinized, counted, and plated at low density (750 cells per well of a 6-well dish) for assaying clonogenic growth. Additional cells were also collected and assessed by q-RT-PCR for NFS1 knockdown. Clonogenic growth (relative colony area shown in FIG. 5, as well as the number of objects) was monitored by red fluorescent protein (RFP) expression over two weeks scanning the plates on a laser scanning cytometer (IsoCyte, ImageXpress Velos). […]

For COC(=O)c1ccc([C@H]2c3[nH]c4ccccc4c3C[C@H](C(=O)OC)N2C(=O)CCl)cc1 [1S3R-RSL3, (1S,3R)-RSL3], the ferroptosis [1] is listed as “induce ferroptosis” and the PTGS2 expression [2] is listed as “upregulation”.

With [Cl][Co][Cl] [cobalt chloride] the HIF2alpha levels [3] was “modulation of HIF2alpha levels”.

In the case of “NFS1^C381A: mutant NFS1 that is catalytically dead due to a C381A mutation, dominant negative, expressed from lentiviral cDNA”, the aconitase activity [4] is reported as “decrease”, the “ferritin (FTH1) levels” value [5] is reported as “decrease” and the clonogenic growth [6] is reported as “growth inhibitory effects comparable to that of NFS1-sh5; also recorded: strongly inhibited cell growth”.
